Laboratory results taken from patent US20240238424A1, “HETEROBIFUNCTIONAL COMPOUNDS AND METHODS OF TREATING DISEASE” (Halda Therapeutics OpCo, Inc., priority 2021, published 2024).

Tests used:
HeLa KRas G12C cells = experiment: Cellular growth inhibition assay (CTG), HeLa KRas G12C cells; format: cell-based; settings: Homo sapiens, CellTiter-Glo 2.0, day-5
Method: Cells were seeded in Poly-D-lysine-treated 384-well white plates, with 25 μL cell suspension at 250 cells/well for continuous treatments, and 1000 cells/well for washout treatments. Plates were spun at 300×g for 3 minutes, and cells were cultured at 37° C. with 5% CO2 in a humidified tissue culture incubator.
After 24 hours, the test compounds were diluted with cell culture medium in 96 deep well plates. DMSO was used as a negative control. A 25 μL aliquot of compound-containing medium was added in each well, at a final top concentration of 10 μM or 30 μM test compound, with 3-fold dilutions. For washout assays, after 4 hours, cell medium with compound was removed, and the cells were washed with 75p L fresh medium. Plates were then spun at 300×g for 3 minutes and replaced with 50 μL fresh medium in each well. Plates were then spun at 300×g for 3 minutes again and cultured at 37° C. with 5% CO2.
At day-0 and day-5 of compound treatments, cell viability was quantified with CellTiter-Glo 2.0 (Promega). After equilibrating cell plates at room temperature for 30 minutes, 25 μL CellTiter-Glo 2.0 reagent was dispensed into each well (on top of 50 μL of cell culture). Plates were mixed on a shaker for 2 minutes at 500 rpm, followed by a 10-minute incubation at room temperature. Luminescence readings were measured with an EnVision Plate Reader. Data was normalized to DMSO treated day-0 cell wells. A four-parameter non-linear regression curve fit was applied to dose-response data in Prism to determine the half maximal growth inhibitory concentration (GI50) of each compound.

GSPT1 = biological target: T1, GSPT1 (Homo sapiens, UniProt P15170+Q96SW2); experiment: GSPT1 HiBit degradation assay; format: cell-based; settings: HEK293 LgBiT cells expressing GSPT1_HiBiT, luminescence after 6 hours
T1 construct: host or cells: HEK293 LgBiT cell line
Source text: Promega developed a HEK293 cell line that constitutively expresses LgBiT protein and GSPT1_HiBiT fusion protein. When both proteins are present, the HiBiT portion of the fusion protein combines with LgBiT protein to form a functional luciferase enzyme. Endurazine, a cell permeable small molecule, is converted by cellular esterases into furimazine, which the luciferase enzyme uses as a substrate to generate luminescence. When GSPT1 is degraded, the HiBit is also degraded. This prevents formation of fully functional luciferase, leading to a loss in luminescence. GSPT1 degradation therefore correlates with a decrease in luminescence and can be measured continuously over time. The concentration of compound at which 50% GSPT1 degradation occurs (DC50) was calculated using this system.
• HEK293 LgBiT Cell line (Promega Custom) • Endurazine Substrate (Promega Cat. #N2570) • DMEM (Gibco Cat. #11995) • Penicillin/Streptomycin (Gibco Cat. #15140-122) • Heat Inactivated Fetal Bovine Serum (Gibco Cat. #A38400-01) • Hygromycin B (Gibco Cat. #10-687-010) • 384 Well TC Treated White Microplate (Perkin Elmer Cat. #6007680)
HEK293 LgBiT cells were cultured in DMEM Media supplemented with 10% FBS, 5% Pen/Strep, 200 μg/ml hygromycin and stored in an incubator set at 37° C. and 5% CO2. 18-24 hours prior to compound treatment, HEK293 LgBiT cells were seeded at 1000 cells/well in a 384-well microplate in 25 μl complete media. The plate was spun at 300 g for 30 seconds and stored in the incubator overnight. The next day, compounds were titrated in DMSO and added to media supplemented with endurazine substrate. A 25 ul aliquot of 2× compound/endurazine in media were then added to the 384-well microplate with seeded cells. (Endurazine was used at a final concentration of 0.5×). The plate was spun at 300 g for 30 seconds and stored in the incubator. After 6 hours the plate was read on a Perkin Elmer MultiMode Plate Reader Envision 2105 to measure luminescence signal.

T1 sequence (P15170 whole entry): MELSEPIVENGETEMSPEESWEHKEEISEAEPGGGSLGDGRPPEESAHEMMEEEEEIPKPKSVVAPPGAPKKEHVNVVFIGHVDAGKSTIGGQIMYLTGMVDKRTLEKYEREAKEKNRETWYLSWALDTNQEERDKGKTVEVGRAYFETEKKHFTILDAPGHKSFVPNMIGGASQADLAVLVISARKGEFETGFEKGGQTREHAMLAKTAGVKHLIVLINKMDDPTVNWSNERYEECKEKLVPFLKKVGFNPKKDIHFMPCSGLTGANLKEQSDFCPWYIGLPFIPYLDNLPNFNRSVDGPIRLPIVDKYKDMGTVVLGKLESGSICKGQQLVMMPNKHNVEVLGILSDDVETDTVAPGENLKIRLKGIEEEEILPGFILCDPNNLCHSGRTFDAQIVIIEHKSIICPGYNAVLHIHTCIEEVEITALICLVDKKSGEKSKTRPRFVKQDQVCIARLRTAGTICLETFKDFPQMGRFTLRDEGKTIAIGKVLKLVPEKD
T1 sequence (Q96SW2 whole entry): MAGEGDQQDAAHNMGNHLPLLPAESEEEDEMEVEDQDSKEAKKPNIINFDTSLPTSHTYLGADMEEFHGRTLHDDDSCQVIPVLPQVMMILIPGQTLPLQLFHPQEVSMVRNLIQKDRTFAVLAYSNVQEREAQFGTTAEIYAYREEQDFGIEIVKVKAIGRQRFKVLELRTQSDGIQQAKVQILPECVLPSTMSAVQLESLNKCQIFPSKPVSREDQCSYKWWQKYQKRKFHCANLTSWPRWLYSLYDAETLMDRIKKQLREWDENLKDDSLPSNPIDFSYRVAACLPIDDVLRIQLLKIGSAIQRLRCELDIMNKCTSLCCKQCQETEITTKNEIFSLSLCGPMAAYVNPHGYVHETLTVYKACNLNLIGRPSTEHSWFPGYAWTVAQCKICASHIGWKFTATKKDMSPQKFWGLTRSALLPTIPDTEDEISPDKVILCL
T1 sequence (Q16531 whole entry partner): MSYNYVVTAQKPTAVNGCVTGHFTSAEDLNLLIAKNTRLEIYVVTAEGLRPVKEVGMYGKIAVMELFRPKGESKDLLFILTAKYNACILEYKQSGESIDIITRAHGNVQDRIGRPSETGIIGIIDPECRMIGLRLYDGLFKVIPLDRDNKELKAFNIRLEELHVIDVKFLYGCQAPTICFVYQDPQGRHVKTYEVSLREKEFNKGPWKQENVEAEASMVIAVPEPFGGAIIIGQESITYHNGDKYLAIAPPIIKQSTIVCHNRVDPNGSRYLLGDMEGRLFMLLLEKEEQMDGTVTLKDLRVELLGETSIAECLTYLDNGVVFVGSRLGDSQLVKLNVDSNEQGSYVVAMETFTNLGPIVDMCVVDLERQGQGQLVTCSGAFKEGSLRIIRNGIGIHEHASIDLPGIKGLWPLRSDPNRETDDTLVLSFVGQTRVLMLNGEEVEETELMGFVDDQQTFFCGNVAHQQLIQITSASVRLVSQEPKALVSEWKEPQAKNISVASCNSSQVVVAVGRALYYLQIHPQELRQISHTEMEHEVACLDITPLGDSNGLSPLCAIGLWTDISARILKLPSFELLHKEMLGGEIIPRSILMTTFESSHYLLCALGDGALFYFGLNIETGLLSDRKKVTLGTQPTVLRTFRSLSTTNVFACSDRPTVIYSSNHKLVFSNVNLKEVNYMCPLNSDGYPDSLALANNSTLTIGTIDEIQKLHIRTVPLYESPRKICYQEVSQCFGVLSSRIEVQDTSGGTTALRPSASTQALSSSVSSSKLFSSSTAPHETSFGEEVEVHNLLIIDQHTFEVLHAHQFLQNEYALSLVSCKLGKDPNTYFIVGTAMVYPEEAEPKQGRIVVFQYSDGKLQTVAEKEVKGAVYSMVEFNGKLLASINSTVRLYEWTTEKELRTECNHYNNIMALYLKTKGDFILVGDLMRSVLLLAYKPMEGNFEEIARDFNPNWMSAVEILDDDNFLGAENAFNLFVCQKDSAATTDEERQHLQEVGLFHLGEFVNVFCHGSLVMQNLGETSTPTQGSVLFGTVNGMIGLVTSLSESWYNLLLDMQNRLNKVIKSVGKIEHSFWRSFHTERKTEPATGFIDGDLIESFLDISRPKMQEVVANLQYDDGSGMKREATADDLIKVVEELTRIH

| SMILES | GI50 (HeLa KRas G12C cells) | DC50 (GSPT1; Table 3) | DC50 (GSPT1; Table 3A) |
| --- | --- | --- | --- |
| C=C(F)C(=O)N1CCN(c2nc(OC[C@@H]3CCCN3CCCCCCCCc3cc(Cl)cc(NC(=O)NCc4ccc5c(c4)CN(C4CCC(=O)NC4=O)C5=O)c3)nc3c2CCN(c2cccc4cccc(Cl)c24)C3)C[C@@H]1CC#N (stereo partly drawn) [Compound I-1, 1-[3-chloro-5-[8-[(2S)-2-[[7-(8-chloro-1-naphthyl)-4-[(3S)-3-(cyanomethyl)-4-(2-fluoroprop-2-enoyl)piperazin-1-yl]-6,8-dihydro-5H-pyrido[3,4-d]pyrimidin-2-yl]oxymethyl]pyrrolidin-1-yl]octyl]phenyl]-3-[[2-(2,6-dioxo-3-piperidyl)-1-oxo-isoindolin-5-yl]methyl]urea] | 1 to 3 µM | 0.25 to 5 µM |  |
| C=C(F)C(=O)N1CCN(c2nc(OC[C@@H]3CCCN3CCOCCOCCOCCOCCOCCOCCc3cc(Cl)cc(NC(=O)NCc4ccc5c(c4)CN(C4CCC(=O)NC4=O)C5=O)c3)nc3c2CCN(c2cccc4cccc(Cl)c24)C3)C[C@@H]1CC#N (stereo partly drawn) [Compound I-2, 1-(3-chloro-5-(20-((S)-2-(((7-(8-chloronaphthalen-1-yl)-4-((S)-3-(cyanomethyl)-4-(2-fluoroacryloyl)piperazin-1-yl)-5,6,7,8-tetrahydropyrido[3,4-d]pyrimidin-2-yl)oxy)methyl)pyrrolidin-1-yl)-3,6,9,12,15,18-hexaoxaicosyl)phenyl)-3-((2-(2,6-dioxopiperidin-3-yl)-1-oxoisoindolin-5-yl)methyl)urea] | > 10 µM | 5 to 10 µM |  |
| C=C(F)C(=O)N1CCN(c2nc(OC[C@@H]3CCCN3CCCCCCCCNc3cccc4c3CN(C3CCC(=O)NC3=O)C4=O)nc3c2CCN(c2cccc4cccc(Cl)c24)C3)C[C@@H]1CC#N (stereo partly drawn) [Compound I-3, 2-((2S)-4-(7-(8-chloronaphthalen-1-yl)-2-(((2S)-1-(8-((2-(2,6-dioxopiperidin-3-yl)-1-oxoisoindolin-4-yl)amino)octyl)pyrrolidin-2-yl)methoxy)-5,6,7,8-tetrahydropyrido[3,4-d]pyrimidin-4-yl)-1-(2-fluoroacryloyl)piperazin-2-yl)acetonitrile] | 3 to 10 µM | > 10 µM |  |
| C=C(F)C(=O)N1CCN(c2nc(OC[C@@H]3CCCN3CCCCCCCCc3cccc4c3CN(C3CCC(=O)NC3=O)C4=O)nc3c2CCN(c2cccc4cccc(Cl)c24)C3)C[C@@H]1CC#N (stereo partly drawn) [Compound I-4, 2-[(2S)-4-[7-(8-chloro-1-naphthyl)-2-[[(2S)-1-[8-[2-(2,6-dioxo-3-piperidyl)-1-oxo-isoindolin-4-yl]octyl]pyrrolidin-2-yl]methoxy]-6,8-dihydro-5H-pyrido[3,4-d]pyrimidin-4-yl]-1-(2-fluoroprop-2-enoyl)piperazin-2-yl]acetonitrile] | 3 to 10 µM | > 10 µM |  |
| C=CC(=O)N1CCN(c2nc(NCCCCCCCCc3cc(Cl)cc(NC(=O)NCc4ccc5c(c4)CN(C4CCC(=O)NC4=O)C5=O)c3)nc3c(F)c(-c4cc(O)cc5ccccc45)c(Cl)cc23)CC1 (stereo not shown) [Compound I-5, 1-[3-chloro-5-[8-[[6-chloro-8-fluoro-7-(3-hydroxy-1-naphthyl)-4-(4-prop-2-enoylpiperazin-1-yl)quinazolin-2-yl]amino]octyl]phenyl]-3-[[2-(2,6-dioxo-3-piperidyl)-1-oxo-isoindolin-5-yl]methyl]urea] | > 10 µM | < 0.25 µM |  |
| Cc1c(NC(=O)c2ccc(C3CC3)cc2F)cc(F)cc1-c1ncnc(N)c1OCCN(C)C(=O)/C=C/CN(C)CCOCCOCCOCCOCCOCCOCCOCCOCCOCCCCCc1cc(Cl)cc(NC(=O)NCc2ccc3c(c2)CN(C2CCC(=O)NC2=O)C3=O)c1 (stereo not shown) [Compound I-129] |  |  | 0.25 to 5 µM |
| C=C(F)C(=O)N1CCN(c2nc(OC[C@@H]3CCCN3CCCOCCOCCOCCOCCOCCCCCc3cc(Cl)cc(NC(=O)NCc4ccc5c(c4)CN(C4CCC(=O)NC4=O)C5=O)c3)nc3c2CCN(c2cccc4cccc(Cl)c24)C3)C[C@@H]1CC#N (stereo partly shown) [Compound I-133] |  |  | 0.25 to 5 µM |
| CN(CCOCCOCCOCCOCCOCCOCCOCCOCCOCCCCCc1cc(Cl)cc(NC(=O)NCc2ccc3c(c2)CN(C2CCC(=O)NC2=O)C3=O)c1)C(=O)CO[C@H]1CC[C@H]2[C@@H]3CC[C@H]4CC(=O)CC[C@]4(C)[C@H]3CC[C@]12C (stereo partly shown) [Compound I-135] |  |  | 0.25 to 5 µM |
| C=C(F)C(=O)N1CCN(c2nc(OC[C@@H]3C[C@@H](OCC(=O)N(C)CCOCCOCCOCCOCCOCCOCCOCCCCCc4cc(Cl)cc(NC(=O)NCc5ccc6c(c5)CN(C5CCC(=O)NC5=O)C6=O)c4)CN3C)nc3c2CCN(c2cccc4cccc(Cl)c24)C3)C[C@@H]1CC#N (stereo partly shown) [Compound I-136] |  |  | 0.25 to 5 µM |
| C=CC(=O)Nc1cc(Nc2nccc(-c3cn(C)c4ccccc34)n2)c(OC)cc1N(C)CCN(C)CCOCCOCCOCCOCCOCCOCCOCCCCCc1cc(Cl)cc(NC(=O)NCc2ccc3c(c2)CN(C2CCC(=O)NC2=O)C3=O)c1 (stereo not shown) [Compound I-139] |  |  | 0.25 to 5 µM |
| C=C(F)C(=O)N1CCN(c2nc(OC[C@@H]3CCCN3CCCOCCOCCOCCOCCOCCCCCc3ccc(Cl)cc3NC(=O)NCc3ccc4c(c3)CN(C3CCC(=O)NC3=O)C4=O)nc3c2CCN(c2cccc4cccc(Cl)c24)C3)C[C@@H]1CC#N (stereo partly shown) [Compound I-140] |  |  | 0.25 to 5 µM |
| COc1cc(N2CCN(C(=O)COCCOCCOCCOCCOCCOCCOCCOCCOCCCCCc3cc(Cl)cc(NC(=O)NCc4ccc5c(c4)CN(C4CCC(=O)NC4=O)C5=O)c3)CC2)ccc1Nc1ncc(Cl)c(Nc2ccccc2P(C)(C)=O)n1 (stereo not shown) [Compound I-141] |  |  | 0.25 to 5 µM |
| Cc1c(NC(=O)c2ccc(C3CC3)cc2F)cc(F)cc1-c1ncnc(N)c1OCCN(C)C(=O)/C=C/CN(C)CCOCCOCCOCCOCCOCCOCCOCCOCCOCCOCCOCCCCCc1cc(Cl)cc(NC(=O)NCc2ccc3c(c2)CN(C2CCC(=O)NC2=O)C3=O)c1 (stereo not shown) [Compound I-143] |  |  | 0.25 to 5 µM |
| C=CC(=O)N1CCN(c2nc(=O)n(-c3c(C)cc(OCCOCCOCCOCCOCCOCCCCCc4cc(Cl)cc(NC(=O)NCc5ccc6c(c5)CN(C5CCC(=O)NC5=O)C6=O)c4)nc3C(C)C)c3nc(-c4c(O)cccc4F)c(F)cc23)[C@@H](C)C1 (stereo partly shown) [Compound I-149] |  |  | 0.25 to 5 µM |
| C=CC(=O)N1CCN(c2nc(=O)n(-c3c(C)cc(OCCOCCOCCOCCOCCOCCOCCOCCCCCc4cc(Cl)cc(NC(=O)NCc5ccc6c(c5)CN(C5CCC(=O)NC5=O)C6=O)c4)nc3C(C)C)c3nc(-c4c(O)cccc4F)c(F)cc23)[C@@H](C)C1 (stereo partly shown) [Compound I-153] |  |  | 0.25 to 5 µM |
| C=CC(=O)N1CCN(c2nc(=O)n(-c3c(C)cc(OCCOCCOCCOCCOCCOCCOCCOCCOCCOCCCCCc4cc(Cl)cc(NC(=O)NCc5ccc6c(c5)CN(C5CCC(=O)NC5=O)C6=O)c4)nc3C(C)C)c3nc(-c4c(O)cccc4F)c(F)cc23)[C@@H](C)C1 (stereo partly shown) [Compound I-154] |  |  | 0.25 to 5 µM |
| C=C(F)C(=O)N1CCN(c2nc(OC[C@@H]3CCCN3CCCOCCOCCOCCOCCOCCOCCOCCOCCOCCCCCc3cccc(NC(=O)NCc4ccc5c(c4)CN(C4CCC(=O)NC4=O)C5=O)n3)nc3c2CCN(c2cccc4cccc(Cl)c24)C3)C[C@@H]1CC#N (stereo partly shown) [Compound I-156] |  |  | 0.25 to 5 µM |
| CN(C/C=C/C(=O)N1CCN(c2nc(OC[C@@H]3CCCN3C)nc3c2CCN(c2cccc4cccc(Cl)c24)C3)C[C@@H]1CC#N)CCOCCOCCOCCOCCOCCOCCOCCOCCOCCCCCc1cc(Cl)cc(NC(=O)NCc2ccc3c(c2)CN(C2CCC(=O)NC2=O)C3=O)c1 (stereo partly shown) [Compound I-162] |  |  | 0.25 to 5 µM |
| CN(C/C=C/C(=O)N1CCN(c2nc(OC[C@@H]3CCCN3C)nc3c2CCN(c2cccc4cccc(Cl)c24)C3)C[C@@H]1CC#N)CCOCCOCCOCCOCCOCCOCCOCCOCCOCCCCCc1cc(Cl)cc(NC(=O)NCc2ccc3c(c2)CN(C2CCC(=O)N(C)C2=O)C3=O)c1 (stereo partly shown) [Compound I-164] |  |  | 5 to 10 µM |
| C=CC(=O)N1CCN(c2nc(=O)n(-c3c(C)cc(OCCOCCOCCOCCOCCOCCOCCOCCOCCOCCOCCOCCCCCc4cc(Cl)cc(NC(=O)NCc5ccc6c(c5)CN(C5CCC(=O)NC5=O)C6=O)c4)nc3C(C)C)c3nc(-c4c(O)cccc4F)c(F)cc23)[C@@H](C)C1 (stereo partly shown) [Compound I-165] |  |  | 0.25 to 5 µM |
